Data taken from article PMC7849011, “Defining the Antimalarial Activity of Cipargamin in Healthy Volunteers Experimentally Infected with Blood-Stage Plasmodium falciparum” (Antimicrobial Agents and Chemotherapy, 2021).
Several values for one entry are separate records, joined by “and”; a condition that tells them apart may be missing. Equal values may be shown once.

Assay: Safety assessment (adverse events, clinical laboratory, ECG)
Assay type: in vivo, human
Experimental: Safety assessments were performed throughout the study from screening and included adverse event reporting, physical examination, vital signs, clinical laboratory evaluation (hematology, biochemistry, and urinalysis), electrocardiography (ECG), and malaria clinical score recording. The malaria clinical score served as a clinical indication of the severity of the induced malaria infection; 14 signs and symptoms commonly associated with malaria were graded using a 3-point scale (0 = absent, 1 = mild, 2 = moderate, and 3 = severe), and the values were summed in order to generate an overall score (with a maximum possible score of 42). The severity of AEs was graded in accordance with the Common Terminology Criteria for Adverse Events, version 4.03 (https://evs.nci.nih.gov/ftp1/CTCAE/CTCAE_4.03/CTCAE_4.03_2010-06-14_QuickReference_5x7.pdf).

C[C@H]1Cc2c([nH]c3cc(Cl)c(F)cc23)[C@@]2(N1)C(=O)Nc1ccc(Cl)cc12 [cipargamin]
Abdominal discomfort (10 mg, N=8): 4 (50.0) n (%) | Alanine aminotransferase increased (10 mg, N=8): 2 (25.0) n (%) | Arthralgia (10 mg, N=8): 2 (25.0) n (%) | Aspartate aminotransferase increased (10 mg, N=8): 1 (12.5) n (%) | Cardiac disorders (system organ class) (10 mg, N=8): 1 (12.5) n (%) | Chills (10 mg, N=8): 3 (37.5) n (%) | Decreased appetite (10 mg, N=8): 3 (37.5) n (%) | Diarrhoea (10 mg, N=8): 2 (25.0) n (%) | Drug-induced liver injury (10 mg, N=8): 1 (12.5) n (%) | Eye disorders (system organ class) (10 mg, N=8): 1 (12.5) n (%) | Gamma-glutamyltransferase increased (10 mg, N=8): 2 (25.0) n (%) | Gastrointestinal disorders (system organ class) (10 mg, N=8): 5 (62.5) n (%) | General disorders and administration site conditions (system organ class) (10 mg, N=8): 6 (75.0) n (%) | Haemoptysis (10 mg, N=8): 1 (12.5) n (%) | Head discomfort (10 mg, N=8): 1 (12.5) n (%) | Headache (10 mg, N=8): 5 (62.5) n (%) and 5 n (%) | Hepatobiliary disorders (system organ class) (10 mg, N=8): 1 (12.5) n (%) | Hyperhidrosis (10 mg, N=8): 3 (37.5) n (%) | Investigations (system organ class) (10 mg, N=8): 3 (37.5) n (%) | Lethargy (10 mg, N=8): 4 (50.0) n (%) | Liver function test abnormal (10 mg, N=8): 1 (12.5) n (%) | Liver tenderness (10 mg, N=8): 1 (12.5) n (%) | Malaise (10 mg, N=8): 4 (50.0) n (%) | Metabolism and nutrition disorders (system organ class) (10 mg, N=8): 3 (37.5) n (%) | Musculoskeletal and connective tissue disorders (system organ class) (10 mg, N=8): 5 (62.5) n (%) | Myalgia (10 mg, N=8): 5 (62.5) n (%) and 5 n (%) | Nausea (10 mg, N=8): 1 (12.5) n (%) | Neck pain (10 mg, N=8): 1 (12.5) n (%) | Nervous system disorders (system organ class) (10 mg, N=8): 6 (75.0) n (%) | Non-cardiac chest pain (10 mg, N=8): 1 (12.5) n (%) | Photophobia (10 mg, N=8): 1 (12.5) n (%) | Pyrexia (10 mg, N=8): 6 (75.0) n (%) and 6 n (%) | Rales (10 mg, N=8): 1 (12.5) n (%) | Rash (10 mg, N=8): 1 (12.5) n (%) | Respiratory, thoracic and mediastinal disorders (system organ class) (10 mg, N=8): 3 (37.5) n (%) | Rhinorrhoea (10 mg, N=8): 1 (12.5) n (%) | Skin and subcutaneous tissue disorders (system organ class) (10 mg, N=8): 4 (50.0) n (%) | Subjects with at least one adverse event (10 mg, N=8): 8 (100) n (%) | Tachycardia (10 mg, N=8): 1 (12.5) n (%) | Urticaria (10 mg, N=8): 1 (12.5) n (%) | AEs leading to discontinuation: No. (%) of subjects (10 mg, 8 subjects): 0 (0) | AEs leading to discontinuation: No. of AEs (10 mg, 8 subjects): 0 | AEs mild in severity, of all AEs (10 mg, 8 subjects): 68/89 | Any AEs, cipargamin related: No. (%) of subjects (10 mg, 8 subjects): 4 (50.0) | Any AEs, cipargamin related: No. of AEs (10 mg, 8 subjects): 10 | Any AEs: No. (%) of subjects with at least 1 AE (10 mg, 8 subjects): 8 (100) | Any AEs: No. of AEs (10 mg, 8 subjects): 89 | Moderate AEs (grade 2), cipargamin related: No. (%) of subjects (10 mg, 8 subjects): 2 (25.0) | Moderate AEs (grade 2), cipargamin related: No. of AEs (10 mg, 8 subjects): 2 | Moderate AEs (grade 2): No. (%) of subjects (10 mg, 8 subjects): 7 (87.5) | Moderate AEs (grade 2): No. of AEs (10 mg, 8 subjects): 18 | SAEs: No. (%) of subjects (10 mg, 8 subjects): 3 (37.5) | SAEs: No. of AEs (10 mg, 8 subjects): 3 | Severe AEs (grade 3), cipargamin related: No. (%) of subjects (10 mg, 8 subjects): 2 (25.0) | Severe AEs (grade 3), cipargamin related: No. of AEs (10 mg, 8 subjects): 2 | Severe AEs (grade 3): No. (%) of subjects (10 mg, 8 subjects): 2 (25.0) | Severe AEs (grade 3): No. of AEs (10 mg, 8 subjects): 3 | hematology, urinalysis, or electrocardiogram (ECG) parameters (10 mg, 8 subjects): no clinically significant abnormalities | maximum ALT, times ULN (subject 1): 5.2 × ULN | maximum AST (subject 1): 88 U/liter | maximum AST, times ULN (subject 1): 2.2 × ULN | maximum ALT (subject 1, onset 8 days after dosing): 208 U/liter | ALT (subject 3, 8 days after dosing): 187 U/liter | ALT, times ULN (subject 3, 8 days after dosing): 4.6 × ULN | AST (subject 3, 8 days after dosing): 106 U/liter | AST, times ULN (subject 3, 8 days after dosing): 2.6 × ULN | GGT (subject 3, 8 days after dosing): 215 U/liter | GGT, times ULN (subject 3, 8 days after dosing): 4.3 × ULN | bilirubin (subject 3, 8 days after dosing): 74 µmol/L | bilirubin, times ULN (subject 3, 8 days after dosing): 3.7 × ULN | conjugated bilirubin (subject 3, 8 days after dosing): 22 µmol/L | conjugated bilirubin, times ULN (subject 3, 8 days after dosing): 3.1 × ULN | peak ALT, times ULN (subject 8): 24.1 × ULN | peak AST (subject 8): 443 U/liter | peak AST, times ULN (subject 8): 11 × ULN | peak GGT (subject 8): 159 U/liter | peak GGT, times ULN (subject 8): 3.1 × ULN | peak ALT (subject 8, onset 11 days after dosing): 964 U/liter
